Assay results taken from ChEMBL document CHEMBL1201862, “PubChem BioAssay data set” (2004).
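Each compound was tested at five concentrations against cells in 96-well plates for 48 hours. GI50 is the concentration that inhibits growth by half.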 The source made the active and inactive calls. No stated cut-off is given here; in the data, active = GI50 up to about 1.1 µM and inactive = higher.

Legend:
Experiment in all cases: NCI anticancer screen, dose series, 48 h
786-0 = tested on: 786-0
A498 = tested on: A498
A549 = tested on: A549
ACHN = tested on: ACHN
BT-549 = tested on: BT-549
CAKI-1 = tested on: CAKI-1
CCRF-CEM = tested on: CCRF-CEM
COLO 205 = tested on: COLO 205
DU-145 = tested on: DU-145
EKVX = tested on: EKVX
HCC 2998 = tested on: HCC 2998
HCT-116 = tested on: HCT-116
HCT-15 = tested on: HCT-15
HL-60 = tested on: HL-60
HOP-62 = tested on: HOP-62
HOP-92 = tested on: HOP-92
HT-29 = tested on: HT-29
Hs-578T = tested on: Hs-578T
IGROV-1 = tested on: IGROV-1
KM12 = tested on: KM12
LOX IMVI = tested on: LOX IMVI
M14 = tested on: M14
MCF7 = tested on: MCF7
MDA-MB-231 = tested on: MDA-MB-231
MDA-MB-435 = tested on: MDA-MB-435
MDA-N = tested on: MDA-N
MOLT-4 = tested on: MOLT-4
Malme-3M = tested on: Malme-3M
NCI-H23 = tested on: NCI-H23
NCI-H460 = tested on: NCI-H460
NCI-H522 = tested on: NCI-H522
NCI/ADR-RES = tested on: NCI/ADR-RES
OVCAR-3 = tested on: OVCAR-3
OVCAR-4 = tested on: OVCAR-4
OVCAR-5 = tested on: OVCAR-5
OVCAR-8 = tested on: OVCAR-8
PC-3 = tested on: PC-3
RPMI-8226 = tested on: RPMI-8226
RXF 393 = tested on: RXF 393
SF-268 = tested on: SF-268
SF-295 = tested on: SF-295
SF-539 = tested on: SF-539
SK-MEL-28 = tested on: SK-MEL-28
SK-MEL-2 = tested on: SK-MEL-2
SK-MEL-5 = tested on: SK-MEL-5
SK-OV-3 = tested on: SK-OV-3
SN12C = tested on: SN12C
SNB-19 = tested on: SNB-19
SW-620 = tested on: SW-620
T47D = tested on: T47D
TK-10 = tested on: TK-10
U-251 = tested on: U-251
UACC-257 = tested on: UACC-257
UACC-62 = tested on: UACC-62
NCI-H226 = tested on: NCI-H226
UO-31 = tested on: UO-31
K562 = tested on: K562
SNB-75 = tested on: SNB-75

CCOC(=O)c1c(N)nn2c1cc1cccccc12
GI50 (786-0): 34.4 µM (inactive) | GI50 (A498): 29.4 µM (inactive) | GI50 (A549): 36.8 µM (inactive) | GI50 (ACHN): 27.9 µM (inactive) | GI50 (BT-549): 25.3 µM (inactive) | GI50 (CAKI-1): 27.9 µM (inactive) | GI50 (CCRF-CEM): 43.5 µM (inactive) | GI50 (COLO 205): 31.9 µM (inactive) | GI50 (DU-145): 32.1 µM (inactive) | GI50 (EKVX): 16.3 µM (inactive) | GI50 (HCC 2998): 30 µM (inactive) | GI50 (HCT-116): 33.5 µM (inactive) | GI50 (HCT-15): 32.3 µM | GI50 (HL-60): 32.5 µM (inactive) | GI50 (HOP-62): 29.8 µM (inactive) | GI50 (HOP-92): 33.5 µM (inactive) | GI50 (HT-29): 36.2 µM (inactive) | GI50 (Hs-578T): 29.9 µM (inactive) | GI50 (IGROV-1): 27.9 µM (inactive) | GI50 (KM12): 20.8 µM (inactive) | GI50 (LOX IMVI): 25.1 µM (inactive) | GI50 (M14): 42.1 µM (inactive) | GI50 (MCF7): 16 µM (inactive) | GI50 (MDA-MB-231): 43 µM (inactive) | GI50 (MDA-MB-435): 31.8 µM (inactive) | GI50 (MDA-N): 41.5 µM (inactive) | GI50 (MOLT-4): 25.7 µM (inactive) | GI50 (Malme-3M): 27.8 µM (inactive) | GI50 (NCI-H23): 29.3 µM (inactive) | GI50 (NCI-H460): 20.1 µM (inactive) | GI50 (NCI-H522): 20.1 µM (inactive) | GI50 (NCI/ADR-RES): 25.9 µM (inactive) | GI50 (OVCAR-3): 28.2 µM (inactive) | GI50 (OVCAR-4): 33.6 µM (inactive) | GI50 (OVCAR-5): 59.8 µM (inactive) | GI50 (OVCAR-8): 24.8 µM (inactive) | GI50 (PC-3): 23.6 µM (inactive) | GI50 (RPMI-8226): 18.3 µM (inactive) | GI50 (RXF 393): 6.14 µM (inactive) | GI50 (SF-268): 24.5 µM (inactive) | GI50 (SF-295): 25.1 µM (inactive) | GI50 (SF-539): 51.5 µM (inactive) | GI50 (SK-MEL-28): 29.9 µM (inactive) | GI50 (SK-MEL-2): 19.1 µM (inactive) | GI50 (SK-MEL-5): 26.1 µM (inactive) | GI50 (SK-OV-3): 26.8 µM (inactive) | GI50 (SN12C): 32.9 µM (inactive) | GI50 (SNB-19): 40.7 µM (inactive) | GI50 (SW-620): 32.5 µM (inactive) | GI50 (T47D): 22.6 µM (inactive) | GI50 (TK-10): 19.5 µM (inactive) | GI50 (U-251): 24 µM (inactive) | GI50 (UACC-257): 27.4 µM (inactive) | GI50 (UACC-62): 23.6 µM (inactive)

CNc1ncnc2c1cnn2Cc1cn(COCC(O)CO)nn1 (configuration not stated)
GI50 (786-0): > 100 µM (inactive) | GI50 (A498): > 100 µM (inactive) | GI50 (A549): > 100 µM (inactive) | GI50 (ACHN): > 100 µM (inactive) | GI50 (BT-549): > 100 µM (inactive) | GI50 (CAKI-1): > 100 µM (inactive) | GI50 (CCRF-CEM): > 100 µM (inactive) | GI50 (COLO 205): > 100 µM (inactive) | GI50 (DU-145): > 100 µM (inactive) | GI50 (EKVX): > 100 µM (inactive) | GI50 (HCC 2998): > 100 µM (inactive) | GI50 (HCT-116): > 100 µM (inactive) | GI50 (HCT-15): > 100 µM | GI50 (HL-60): > 100 µM (inactive) | GI50 (HOP-62): > 100 µM (inactive) | GI50 (HOP-92): 59.4 µM (inactive) | GI50 (HT-29): > 100 µM (inactive) | GI50 (Hs-578T): 0.149 µM (active) | GI50 (IGROV-1): > 100 µM (inactive) | GI50 (KM12): > 100 µM (inactive) | GI50 (LOX IMVI): > 100 µM (inactive) | GI50 (M14): > 100 µM (inactive) | GI50 (MCF7): > 100 µM (inactive) | GI50 (MDA-MB-231): > 100 µM (inactive) | GI50 (MDA-MB-435): > 100 µM (inactive) | GI50 (MDA-N): > 100 µM (inactive) | GI50 (NCI-H226): > 100 µM (inactive) | GI50 (NCI-H23): > 100 µM (inactive) | GI50 (NCI/ADR-RES): > 100 µM (inactive) | GI50 (OVCAR-3): > 100 µM (inactive) | GI50 (OVCAR-4): > 100 µM (inactive) | GI50 (OVCAR-5): > 100 µM (inactive) | GI50 (OVCAR-8): > 100 µM (inactive) | GI50 (PC-3): > 100 µM (inactive) | GI50 (RPMI-8226): > 100 µM (inactive) | GI50 (SF-268): 4.97 µM (inactive) | GI50 (SF-295): > 100 µM (inactive) | GI50 (SF-539): > 100 µM (inactive) | GI50 (SK-MEL-28): > 100 µM (inactive) | GI50 (SK-MEL-2): > 100 µM (inactive) | GI50 (SK-MEL-5): > 100 µM (inactive) | GI50 (SK-OV-3): > 100 µM (inactive) | GI50 (SN12C): > 100 µM (inactive) | GI50 (SNB-19): > 100 µM (inactive) | GI50 (SW-620): > 100 µM (inactive) | GI50 (T47D): > 100 µM (inactive) | GI50 (TK-10): > 100 µM (inactive) | GI50 (U-251): > 100 µM (inactive) | GI50 (UACC-257): > 100 µM (inactive) | GI50 (UACC-62): > 100 µM (inactive) | GI50 (UO-31): > 100 µM (inactive)

CC1=CC2C(O1)C1C(=O)C=CC(=O)C1=CC2[N+](=O)[O-] (configuration not stated)
GI50 (786-0): 12.3 µM (inactive) | GI50 (A498): 22.9 µM (inactive) | GI50 (A549): 19.4 µM (inactive) | GI50 (ACHN): 5.3 µM (inactive) | GI50 (BT-549): 15.8 µM (inactive) | GI50 (CAKI-1): 5.01 µM (inactive) | GI50 (CCRF-CEM): 3.85 µM (inactive) | GI50 (COLO 205): 5.73 µM (inactive) | GI50 (DU-145): 25.4 µM (inactive) | GI50 (EKVX): 14.6 µM (inactive) | GI50 (HCC 2998): > 43.7 µM (inactive) | GI50 (HCT-116): 13.8 µM (inactive) | GI50 (HCT-15): 19.1 µM | GI50 (HL-60): 8.11 µM (inactive) | GI50 (HOP-62): 21 µM (inactive) | GI50 (HOP-92): 2.14 µM (inactive) | GI50 (HT-29): 16.5 µM (inactive) | GI50 (Hs-578T): 18.1 µM (inactive) | GI50 (IGROV-1): 17.9 µM (inactive) | GI50 (K562): 7.67 µM (inactive) | GI50 (KM12): 24.3 µM (inactive) | GI50 (LOX IMVI): 16.6 µM (inactive) | GI50 (M14): 14 µM (inactive) | GI50 (MCF7): 6.75 µM (inactive) | GI50 (MDA-MB-231): 19.8 µM (inactive) | GI50 (MDA-MB-435): 12.2 µM (inactive) | GI50 (MDA-N): 23.1 µM (inactive) | GI50 (MOLT-4): 3.48 µM (inactive) | GI50 (NCI-H226): > 100 µM (inactive) | GI50 (NCI-H23): 19.9 µM (inactive) | GI50 (NCI-H460): 18.6 µM (inactive) | GI50 (NCI-H522): 1.71 µM (inactive) | GI50 (NCI/ADR-RES): 25.5 µM (inactive) | GI50 (OVCAR-3): 16 µM (inactive) | GI50 (OVCAR-4): 17.3 µM (inactive) | GI50 (OVCAR-5): 24.5 µM (inactive) | GI50 (OVCAR-8): 22.5 µM (inactive) | GI50 (PC-3): 19.9 µM (inactive) | GI50 (RPMI-8226): 9.33 µM (inactive) | GI50 (RXF 393): 14.8 µM (inactive) | GI50 (SF-268): 15 µM (inactive) | GI50 (SF-295): 18.7 µM (inactive) | GI50 (SF-539): 33.5 µM (inactive) | GI50 (SK-MEL-28): 27.4 µM (inactive) | GI50 (SK-MEL-2): 23.3 µM (inactive) | GI50 (SK-MEL-5): 17.5 µM (inactive) | GI50 (SK-OV-3): > 100 µM (inactive) | GI50 (SN12C): 18.1 µM (inactive) | GI50 (SNB-19): 34.6 µM (inactive) | GI50 (SNB-75): 26.7 µM (inactive) | GI50 (SW-620): 3.61 µM (inactive) | GI50 (T47D): 3.85 µM (inactive) | GI50 (TK-10): 16.1 µM (inactive) | GI50 (U-251): 18.5 µM (inactive) | GI50 (UACC-257): 16.9 µM (inactive) | GI50 (UACC-62): 18.6 µM (inactive) | GI50 (UO-31): 5.22 µM (inactive)
